# Test results reported in patent US7329510B2, “Full length human HCN1Ih channel subunit and variants” (N.V. Organon, priority 2000, dated 2008).
# Target: T1, human HCN1 channel (Homo sapiens, UniProt O60741, S680F)
# T1 construct: Effect of ZD 7288 (100 micromolar) on hHCN1 (full-length) currents; expressed in transfected cells; host or cells: HEK 293F
# T1 sequence (O60741 1-890 S680F): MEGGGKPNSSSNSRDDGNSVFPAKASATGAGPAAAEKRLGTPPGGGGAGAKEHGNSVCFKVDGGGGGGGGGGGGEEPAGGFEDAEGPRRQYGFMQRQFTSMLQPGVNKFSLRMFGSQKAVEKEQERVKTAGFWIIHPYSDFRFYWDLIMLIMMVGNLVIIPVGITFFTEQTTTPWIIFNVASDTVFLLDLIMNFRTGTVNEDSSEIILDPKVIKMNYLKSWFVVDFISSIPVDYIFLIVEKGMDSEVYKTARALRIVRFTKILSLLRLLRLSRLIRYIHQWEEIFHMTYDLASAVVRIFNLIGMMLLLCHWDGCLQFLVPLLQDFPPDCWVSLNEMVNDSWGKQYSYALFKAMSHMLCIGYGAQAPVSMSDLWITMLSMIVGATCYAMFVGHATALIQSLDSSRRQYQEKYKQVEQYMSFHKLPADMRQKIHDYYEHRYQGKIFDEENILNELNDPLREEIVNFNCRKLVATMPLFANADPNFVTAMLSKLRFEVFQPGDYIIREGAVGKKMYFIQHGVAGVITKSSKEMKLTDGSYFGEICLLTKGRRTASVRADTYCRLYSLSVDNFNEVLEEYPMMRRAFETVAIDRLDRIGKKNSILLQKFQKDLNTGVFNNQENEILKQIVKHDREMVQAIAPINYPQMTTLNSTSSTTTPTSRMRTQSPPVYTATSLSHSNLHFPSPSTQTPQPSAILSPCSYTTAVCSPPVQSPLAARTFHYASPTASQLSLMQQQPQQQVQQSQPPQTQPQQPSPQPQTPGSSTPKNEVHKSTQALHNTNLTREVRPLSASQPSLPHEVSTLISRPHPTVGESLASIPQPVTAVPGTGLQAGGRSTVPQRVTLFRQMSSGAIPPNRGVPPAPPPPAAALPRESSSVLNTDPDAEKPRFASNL
# Test: Whole-cell patch-clamp functional assay for human HCN1 channel currents
# Format: cell-based
# Conditions: HEK293 cells expressing human HCN1, step to -120 mV from holding -40 mV
# Method: Human HCN1 channel currents were detected under voltage-clamp using the whole-cell configuration of the patch-clamp technique. Appropriate cells (HEK293) expressing human HCN1 channel subunits were placed in a recording chamber containing extracellular solution (Sodium chloride 135 mM; Potassium chloride 5 mM; Calcium chloride 1.8 mM; Magnesium chloride 0.5 mM; HEPES 5 mM) at a temperature of 20-25 degrees centigrade. In some experiments the extracellular solution contained 30 mM Potassium chloride, in which cases the Sodium chloride concentration was reduced to 110 mM. […] The membrane current was recorded throughout the experiment. […] The membrane current was measured just after (1-10 milliseconds) the start of the hyperpolarising step and just before (10-100 milliseconds) its end. […] For each cell, the current amplitude was determined first in normal extracellular solution and then in extracellular solution containing caesium chloride (FIG. 3) or ZD 7288 (FIGS. 4 and 7). Alternatively, the effect of caesium chloride (5 mM) on human HCN1 channel currents was determined by measuring the current-voltage relationship in normal extracellular solution and also in extracellular solution containing caesium chloride (FIG. 6). […]
smiles,measurement,setting,value
CCN(c1ccccc1)c1cc(=NC)n(C)c(C)n1.Cl [ZD 7288],Effect on human HCN1 channel currents,ZD 7288 100 micromolar in extracellular solution,reduced
[Cl-].[Cs+] [caesium chloride],Effect on human HCN1 channel currents,caesium chloride 5 mM in extracellular solution,reduced
